Data from patent US8058295B2, “Cystic fibrosis transmembrane conductance regulator protein inhibitors and uses thereof” (The Regents of the University of California, priority 2002, dated 2011).
Read-outs that look alike come from different tables or passages of the source.

How the values were obtained:
[1] = Caco-2 permeability assay; format: in vitro ADME; conditions: human, pH 7.3, Caco-2 monolayers, read-out: permeability coefficient (Papp)
Method: Caco-2 cells were cultured on porous inserts to give monolayer resistances of […]. For transport studies culture medium was replaced with an equal volume of Hank's buffered salt solution (HBSS) containing 15 mM glucose and 25 mM HEPES (pH 7.3).

[2] = system: cholera toxin-induced fluid secretion; design: species or system mice; conditions: mouse, in vivo, po
[3] = pKa by spectrophotometric pH titration; format: physicochemical
[4] = Tissue distribution in rats after intravenous bolus; format: in vivo; conditions: 60 min after i.v. bolus
Method: A bolus of ^14C-CFTRinh-172 (2 μCi) was administered intravenously over 1 min in mice (male CD1 mice, 30-35 grams) by tail vein. Mice were sacrificed at 5, 30, 120 and 240 min. Organs were removed, weighed and homogenized in distilled water (10-50 vol %). Radioactivity was determined by scintillation counting of the homogenates (25-50 μL) and expressed as total ^14C-radioactivity per organ (or per gram tissue for skeletal muscle). At the same time blood, urine and bile (from gallbladder or duodenum) were collected and ^14C-radioactivity was measured and expressed per mL of fluid. Elimination studies were done by collections of urine and stool over the first 24 hr after ^14C-CFTRinh-172 administration. Tissue distribution studies were also done on rats prepared as for pharmacokinetic studies.

CFTR [5] = target: T1, CFTR (Homo sapiens, UniProt P13569)
T1 sequence (P13569 whole entry): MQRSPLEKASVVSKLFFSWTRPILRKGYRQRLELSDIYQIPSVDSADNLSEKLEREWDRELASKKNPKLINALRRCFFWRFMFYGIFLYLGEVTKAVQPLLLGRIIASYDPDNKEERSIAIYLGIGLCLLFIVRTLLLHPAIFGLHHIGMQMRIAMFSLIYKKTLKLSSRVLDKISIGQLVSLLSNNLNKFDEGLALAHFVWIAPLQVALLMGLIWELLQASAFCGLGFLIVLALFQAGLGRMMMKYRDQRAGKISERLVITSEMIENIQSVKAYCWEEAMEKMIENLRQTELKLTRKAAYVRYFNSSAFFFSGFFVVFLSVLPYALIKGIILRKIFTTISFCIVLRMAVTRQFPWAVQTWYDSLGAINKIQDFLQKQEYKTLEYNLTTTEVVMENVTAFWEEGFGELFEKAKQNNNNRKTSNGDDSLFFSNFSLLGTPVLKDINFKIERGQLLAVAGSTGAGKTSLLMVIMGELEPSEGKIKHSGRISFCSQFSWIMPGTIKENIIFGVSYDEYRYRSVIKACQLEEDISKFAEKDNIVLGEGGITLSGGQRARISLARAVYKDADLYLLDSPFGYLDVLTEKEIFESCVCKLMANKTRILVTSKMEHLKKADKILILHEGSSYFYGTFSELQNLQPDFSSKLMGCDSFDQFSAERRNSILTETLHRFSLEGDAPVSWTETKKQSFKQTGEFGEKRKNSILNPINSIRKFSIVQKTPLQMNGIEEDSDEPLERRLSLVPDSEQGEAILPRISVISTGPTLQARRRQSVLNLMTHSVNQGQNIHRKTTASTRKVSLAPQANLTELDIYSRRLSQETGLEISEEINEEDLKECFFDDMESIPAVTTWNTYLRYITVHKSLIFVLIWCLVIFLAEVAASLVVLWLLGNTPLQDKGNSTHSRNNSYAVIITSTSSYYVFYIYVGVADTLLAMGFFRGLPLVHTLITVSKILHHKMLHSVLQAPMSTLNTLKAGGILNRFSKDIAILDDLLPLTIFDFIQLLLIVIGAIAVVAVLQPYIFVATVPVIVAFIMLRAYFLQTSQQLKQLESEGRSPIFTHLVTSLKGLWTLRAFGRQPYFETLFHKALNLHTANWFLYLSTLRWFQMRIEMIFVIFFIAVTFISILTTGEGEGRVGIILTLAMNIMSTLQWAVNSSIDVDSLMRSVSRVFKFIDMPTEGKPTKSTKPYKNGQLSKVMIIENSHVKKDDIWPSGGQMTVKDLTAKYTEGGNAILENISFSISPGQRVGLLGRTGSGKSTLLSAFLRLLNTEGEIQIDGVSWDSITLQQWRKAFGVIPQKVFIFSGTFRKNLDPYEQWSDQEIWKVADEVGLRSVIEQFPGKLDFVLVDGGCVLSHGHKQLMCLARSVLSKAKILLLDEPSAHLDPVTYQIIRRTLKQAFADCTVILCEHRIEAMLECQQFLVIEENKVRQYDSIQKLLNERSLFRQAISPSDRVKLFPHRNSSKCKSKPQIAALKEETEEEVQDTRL

[6] = system: cholera toxin-induced intestinal fluid secretion; design: species or system mice; conditions: mouse, in vivo, po
[7] = Pharmacokinetic and oral bioavailability studies in mice; format: in vivo
Method: For comparison other mice were given ^14C-CFTRinh-172 (2 μCi) intravenously by tail vein infusion. Blood was collected from the tail vein at specified times for measurement of plasma ^14C radioactivity. At 6 hours mice were killed by pentobarbital overdose and organs were removed for measurement of radioactivity in homogenates.

water channel (AQP1) = target: T2, water channel (AQP1) (Homo sapiens, UniProt P29972); assay: Water channel block; conditions: 5 μM
T2 sequence (P29972 1-269): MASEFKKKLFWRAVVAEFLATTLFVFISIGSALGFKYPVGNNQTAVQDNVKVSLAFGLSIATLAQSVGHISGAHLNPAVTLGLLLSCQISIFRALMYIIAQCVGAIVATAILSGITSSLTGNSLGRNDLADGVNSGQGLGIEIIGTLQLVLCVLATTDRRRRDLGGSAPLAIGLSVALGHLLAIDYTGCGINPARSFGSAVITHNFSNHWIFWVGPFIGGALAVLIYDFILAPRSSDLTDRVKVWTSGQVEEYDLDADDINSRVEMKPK

CFTR [8] = target: T1, CFTR; remark: listed apart in the source
CFTR [9] = target: T1, CFTR; assay: Electrophysiological studies in Calu-3 cells; format: cell-based; design: cells that natively express wildtype CFTR, including T84 cells; endogenous in cells; host or cells: T84 colonic epithelial cells (UCSF cell culture facility); conditions: read-out: apparent potency in electrophysiological studies
FRT cells = assay: Cell toxicity by dihydrorhodamine method; format: cell-based, rat; conditions: dihydrorhodamine assay, after 24 hours
[10] = system: intestinal fluid absorption; assay: Fluid absorption in mouse closed intestinal loops; format: in vivo, mice; conditions: 20 μg intraperitoneal, measured at 30 min
Method: FIG. 10 is a set of graphs providing the results of characterization of the mouse closed-intestinal loop model. Panel A (FIG. 10A): Intestinal loops were injected with 200 μL buffer and loop weight measured at indicated times (mean±SEM, 4 mice per time point). […] Inset (top) Chemical structure of CFTRinh-172. Panel B (FIG. 10B): Time course of cholera toxin-induced fluid secretion in mouse closed-loop model. […] Data for injected loops (1 μg cholera toxin/loop) as mean±SEM (4-6 mice).
First, the kinetics of intestinal loop fluid absorption and secretion were determined to characterize the mouse model. To study absorption, loop fluid content was measured at specified times after injection of 200 μL of PBS into individual loops. […] To study secretion, intestinal loops were injected with cholera toxin (1 μg in 0.1 mL PBS).

SMILES: O=C(O)c1ccc(/C=C2\SC(=S)N(c3cccc(C(F)(F)F)c3)C2=O)cc1 [CFTRinh-172, 3-[(3-trifluoromethyl)phenyl]-5-[(4-carboxyphenyl)methylene]-2-thioxo-4-thiazolidinone]
- Papp A→B at 25 μM [1]: 16 ×10⁻⁶ cm/s
- cholera toxin-induced fluid secretion [2]: Inhibition of cholera toxin-induced fluid secretion
- fraction present as the unionized acid ([3]; physiological pH): ~1%
- pKa ([3]; spectrophotometric pH titration): 5.5
- organ distribution of ^14C radioactivity [4]: little radioactivity in brain, heart and skeletal muscle
- IC50 (CFTR [5]): 200 to 500 nM
- Kd (CFTR [5]): ~300 nM
- Hill coefficient (CFTR [5]; dose-inhibition of short-circuit current): ~1
- intestinal fluid accumulation (ratio of intestinal weight before vs. after luminal fluid removal) [6]: remarkably reduced intestinal fluid accumulation
- organ distribution ([7]; 6 hr after oral and intravenous administration): accumulation in the gastrointestinal tract as well as the liver and kidney
- oral bioavailability ([7]; TPGS preparation, oral vs. intravenous tissue/serum content at 4-6 hr): 15-20%
- time over which high initial serum concentrations decreased (tissue redistribution) ([7]; mice, intravenous): ~30 min
- time of peak serum radioactivity ([7]; mice, oral administration in TPGS): 60 to 90 min
- concentration of ^14C radioactivity in bile vs. serum ([7]; mouse, in vivo): ~10 fold
- radioactivity excreted in the stool ([7]; over 24 hr): < 10 % of total excreted radioactivity
- block of water channel (AQP1) (water channel (AQP1)): did not block
- effect on membrane current (CFTR [8]; 2 μM extracellular perfusion, after 5 μM forskolin): rapid reduction in current at all membrane potentials
- inhibition at 0.2 µM (CFTR [8]; FRT, read-out: inhibition of membrane current): ~50%
- IC50 (CFTR [9]): 500 nM
- concentration non-toxic to FRT cells (FRT cells): up to 100 μM
- rate of fluid absorption [10]: did not alter the rate of fluid absorption
